For 16 compounds, inhibition of growth, pest or weed control and melting point results are on record in patent publication US20190364899A1, “MICROBIOCIDAL OXADIAZOLE DERIVATIVES” (SYNGENTA PARTICIPATIONS AG, priority 2015, published 2019).

Usually melting point stands for the temperature, or range, at which the solid turns liquid.

The structures appear in SMILES notation. A value given as a limit tells only on which side of the number the result lay.

In data set [1] the test system is Glomerella Lagenarium (Colletotrichum Lagenarium). Put plainly: Fungicidal activity against Glomerella lagenarium (Colletotrichum lagenarium) liquid culture / cucumber / preventative (anthracnose). It is filed as cell-based. Conditions: Colletotrichum orbiculare; 20 ppm in the applied formulation; liquid culture in PDB, growth inhibition measured photometrically 3 to 4 days after application; compared to untreated; read-out: disease control. As for the experimental part:
(§1) General examples of leaf disk tests in well plates: Leaf disks or leaf segments of various plant species are cut from plants grown in a greenhouse. The cut leaf disks or segments are placed in multiwell plates (24-well format) onto water agar. The leaf disks are sprayed with a test solution before (preventative) or after (curative) inoculation. Compounds to be tested are prepared as DMSO solutions (max. 10 mg/ml) which are diluted to the appropriate concentration with 0.025% Tween20 just before spraying. The inoculated leaf disks or segments are incubated under defined conditions (temperature, relative humidity, light, etc.) according to the respective test system. A single evaluation of disease level is carried out 3 to 14 days after inoculation, depending on the pathosystem. Percent disease control relative to the untreated check leaf disks or segments is then calculated. General examples of liquid culture tests in well plates: Mycelia fragments or conidia suspensions of a fungus prepared either freshly from liquid cultures of the fungus or from cryogenic storage, are directly mixed into nutrient broth. DMSO solutions of the test compound (max. 10 mg/ml) are diluted with 0.025% Tween20 by a factor of 50 and 10 μl of this solution is pipetted into a microtiter plate (96-well format). The nutrient broth containing the fungal spores/mycelia fragments is then added to give an end concentration of the tested compound. The test plates are incubated in the dark at 24° C. and 96% relative humidity. The inhibition of fungal growth is determined photometrically after 2 to 7 days, depending on the pathosystem, and percent antifungal activity relative to the untreated check is calculated.
Example 4: Fungicidal Activity Against Glomerella Lagenarium (Colletotrichum Lagenarium) Liquid Culture/Cucumber/Preventative (Anthracnose)
Conidia of the fungus from cryogenic storage are directly mixed into nutrient broth (PDB—potato dextrose broth). After placing a (DMSO) solution of test compound into a microtiter plate (96-well format), the nutrient broth containing the fungal spores is added. The test plates are incubated at 24° C. and the inhibition of growth is measured photometrically 3 to 4 days after application.
The following compounds at 20 ppm in the applied formulation give at least 80% disease control in this test when compared to untreated control under the same conditions, which show extensive disease development.

The subject of data set [2] is Puccinia Recondite f. Sp. Tritici. Put plainly: Fungicidal activity against Puccinia recondita f. sp. tritici / wheat / leaf disc curative (brown rust). Type of data set: in vivo. Conditions: foliar, 24 h, 200 ppm in the applied formulation, wheat leaf segments cv. Kanzler, applied 1 day after inoculation, compared to untreated, read-out: disease control. The method, then: as §1
Example 2: Fungicidal Activity Against Puccinia Recondite f. Sp. Tritici Wheat/Leaf Disc Curative (Brown Rust)
Wheat leaf segments cv. Kanzler are placed on agar in multiwell plates (24-well format). The leaf segments are then inoculated with a spore suspension of the fungus. Plates were stored in darkness at 19° C. and 75% relative humidity. The formulated test compound diluted in water was applied 1 day after inoculation. The leaf segments were incubated at 19° C. and 75% relative humidity under a light regime of 12 hours light/12 hours darkness in a climate cabinet and the activity of a compound was assessed as percent disease control compared to untreated when an appropriate level of disease damage appears in untreated check leaf segments (6 to 8 days after application).
(§2) The following compounds at 200 ppm in the applied formulation give at least 80% disease control in this test when compared to untreated control leaf disks under the same conditions, which show extensive disease development.

Another data set has as its system Phakopsora pachyrhizi. Briefly: Fungicidal activity against Phakopsora pachyrhizi / soybean / leaf disc preventative (Asian soybean rust). Conditions: foliar, 200 ppm in the applied formulation, soybean leaf disks, inoculated one day after application, compared to untreated, read-out: disease control. Type of data set: in vivo. As for the experimental part: as §1
Example 3: Fungicidal Activity Against Phakopsora pachyrhizi/Soybean/Leaf Disc Preventative (Asian Soybean Rust)
Soybean leaf disks are placed on water agar in multiwell plates (24-well format) and sprayed with the formulated test compound diluted in water. One day after application leaf discs are inoculated by spraying a spore suspension on the lower leaf surface. After an incubation period in a climate cabinet of 24-36 hours in darkness at 20° C. and 75% rh leaf disc are kept at 20° C. with 12 h light/day and 75% rh. The activity of a compound is assessed as percent disease control compared to untreated when an appropriate level of disease damage appears in untreated check leaf disks (12 to 14 days after application).
as §2

The subject of data set [3] is Puccinia recondita f, Sp. Tritici. Put plainly: Fungicidal activity against Puccinia recondita f. sp. tritici / wheat / leaf disc preventative (brown rust). It is filed as in vivo. Conditions: foliar, 200 ppm in the applied formulation, wheat leaf segments cv. Kanzler, inoculated 1 day after application, compared to untreated, read-out: disease control. The method, then:
as §1
Example 1: Fungicidal Activity Against Puccinia recondita f, Sp. Tritici/Wheat/Leaf Disc Preventative (Brown Rust)
Wheat leaf segments cv. Kanzler were placed on agar in multiwell plates (24-well format) and sprayed with the formulated test compound diluted in water. The leaf disks were inoculated with a spore suspension of the fungus 1 day after application. The inoculated leaf segments were incubated at 19° C. and 75% relative humidity (rh) under a light regime of 12 hours light/12 hours darkness in a climate cabinet and the activity of a compound was assessed as percent disease control compared to untreated when an appropriate level of disease damage appears in untreated check leaf segments (7 to 9 days after application).
as §2

Consider `O=C(NCc1ccc(-c2noc(C(F)(F)F)n2)cc1F)OC1CCOCC1` [Compound 1.1, tetrahydropyran-4-yl N-[[2-fluoro-4-[5-(trifluoromethyl)-1,2,4-oxadiazol-3-yl)phenyl]methyl) carbamate], for which the melting point was 105 to 108 °C. Further, the inhibition of growth at 20 ppm in data set [1] was not below 80%. Further, the pest or weed control at 200 ppm in data set [2] is not below 80%. In addition, in the data set with Phakopsora pachyrhizi, the pest or weed control at 200 ppm was not below 80%. Moreover, the pest or weed control at 200 ppm in data set [3] is not below 80%.

Consider `O=C(NCc1ccc(-c2noc(C(F)(F)F)n2)cc1)OC1CCOCC1` [Compound 1.2, tetrahydropyran-4-yl N-[[4-[5-(trifluoromethyl)-1,2,4-oxadiazol-3-yl]phenyl]methyl]carbamate], for which the melting point was 104 to 106 °C. Moreover, in data set [1], the inhibition of growth at 20 ppm is not below 80%. Besides, the pest or weed control at 200 ppm in data set [2] is not below 80%. Also, the pest or weed control at 200 ppm in the data set on Phakopsora pachyrhizi was not below 80%. Besides, the pest or weed control at 200 ppm in data set [3] was not below 80%.

In turn, `O=C(NCc1ccc(-c2noc(C(F)(F)F)n2)cc1)OCC1CC1` [Compound 1.3, cyclopropylmethyl N-[[4-[5-(trifluoromethyl)-1,2,4-oxadiazol-3-yl]phenyl]methyl] carbamate] came in with a melting point of 108.2 to 109.8 °C. In addition, the inhibition of growth at 20 ppm in data set [1] was not below 80%. Also, the pest or weed control at 200 ppm in data set [2] was not below 80%. For the same compound, in the data set with Phakopsora pachyrhizi, the pest or weed control at 200 ppm was not below 80%. In data set [3], the pest or weed control at 200 ppm is not below 80%.

`O=C(NCc1ccc(-c2noc(C(F)(F)F)n2)cc1)NCC1CC1` [Compound 2.1, 1-(cyclopropylmethyl)-3-[[4-[5-(trifluoromethyl)-1,2,4-oxadiazol-3-yl]phenyl]methyl]urea] displayed a melting point of 158.8 to 165 °C. Further, in data set [1], the inhibition of growth at 20 ppm was not below 80%. In addition, the pest or weed control at 200 ppm in the data set on Phakopsora pachyrhizi is not below 80%. Also, the pest or weed control at 200 ppm in data set [3] was not below 80%.

Regarding `O=C(NCc1ccc(-c2noc(C(F)(F)F)n2)cc1F)NCC1CC1` [Compound 2.2, 1-(cyclopropylmethyl)-3-[[2-fluoro-4-[5-(trifluoromethyl)-1,2,4-oxadiazol-3-yl]phenyl]methyl]urea], the melting point was 157 to 160 °C. Further, the inhibition of growth at 20 ppm in data set [1] is not below 80%. The pest or weed control at 200 ppm with Phakopsora pachyrhizi was not below 80%.

As to `O=C(NCc1ccc(-c2noc(C(F)(F)F)n2)c(F)c1)Nc1ccccc1Cl` [Compound 2.21, 1-(2-chlorophenyl)-3-[[3-fluoro-4-[5-(trifluoromethyl)-1,2,4-oxadiazol-3-yl]phenyl]methyl]urea], the melting point was in the range of 173 to 178 °C. For the same compound, the pest or weed control at 200 ppm in data set [3] was not below 80%.

Take `CN(C(=O)NCc1ccc(-c2noc(C(F)(F)F)n2)cc1)C1CC1` [Compound 2.22, 1-cyclopropyl-1-methyl-3-[[4-[5-(trifluoromethyl)-1,2,4-oxadiazol-3-yl]phenyl]methyl]urea]: the inhibition of growth at 20 ppm in data set [1] is not below 80%. Moreover, the pest or weed control at 200 ppm (in data set [2]; in the data set with Phakopsora pachyrhizi; in data set [3]) was not below 80% throughout.

As for `CN(C(=O)NCc1ccc(-c2noc(C(F)(F)F)n2)cc1)C1CCC1` [Compound 2.26, 1-cyclobutyl-1-methyl-3-[[4-[5-(trifluoromethyl)-1,2,4-oxadiazol-3-yl]phenyl]methyl]urea], in data set [1], the inhibition of growth at 20 ppm is not below 80%. Also, the pest or weed control at 200 ppm (in data set [2]; with Phakopsora pachyrhizi; in data set [3]) was not below 80% throughout.

With `CCN(C(=O)NCc1ccc(-c2noc(C(F)(F)F)n2)cc1)C1CC1` [Compound 2.27, 1-cyclopropyl-1-ethyl-3-[[4-[5-(trifluoromethyl)-1,2,4-oxadiazol-3-yl]phenyl]methyl]urea], in data set [1], the inhibition of growth at 20 ppm is not below 80%. Besides, the pest or weed control at 200 ppm (in data set [2]; with Phakopsora pachyrhizi; in data set [3]) was not below 80% in each case.

Regarding `COCC1(N(C)C(=O)NCc2ccc(-c3noc(C(F)(F)F)n3)cc2)CC1` [Compound 2.28, 1-[1-(methoxymethyl)cyclopropyl]-1-methyl-3-[[4-[5-(trifluoromethyl)-1,2,4-oxadiazol-3-yl]phenyl]methyl]urea], in data set [1], the inhibition of growth at 20 ppm is not below 80%. Moreover, the pest or weed control at 200 ppm (in data set [2]; in the data set on Phakopsora pachyrhizi; in data set [3]) was not below 80% in each case.

`C#CCN(C(=O)NCc1ccc(-c2noc(C(F)(F)F)n2)cc1)C1CC1` [Compound 2.30, 1-cyclopropyl-1-prop-2-ynyl-3-[[4-[5-(trifluoromethyl)-1,2,4-oxadiazol-3-yl]phenyl]methyl]urea]: in data set [1], the inhibition of growth at 20 ppm was not below 80%. Besides, the pest or weed control at 200 ppm (in data set [2]; in the data set on Phakopsora pachyrhizi; in data set [3]) was not below 80% in each case.

`CN(CC1CC1)C(=O)NCc1ccc(-c2noc(C(F)(F)F)n2)cc1` [Compound 2.31, 1-(cyclopropylmethyl)-1-methyl-3-[[4-[5-(trifluoromethyl)-1,2,4-oxadiazol-3-yl]phenyl]methyl]urea]: the inhibition of growth at 20 ppm in data set [1] was not below 80%. The pest or weed control at 200 ppm (in data set [2]; in the data set with Phakopsora pachyrhizi; in data set [3]) was not below 80% throughout.

For `O=C(NCCc1ccc(-c2noc(C(F)(F)F)n2)cc1)NC1CC1` [Compound 2.32, 1-cyclopropyl-3-[2-[4-[5-(trifluoromethyl)-1,2,4-oxadiazol-3-yl]phenyl]ethyl]urea], the melting point fell in the range of 147 to 159 °C.

As for `O=C(NCc1ccc(-c2noc(C(F)(F)F)n2)c(F)c1)N1CCOCC1` [Compound 3.3, N-[[3-fluoro-4-[5-(trifluoromethyl)-l,2,4-oxadiazol-3-yl]phenyl]methyl] morpholine-4-carboxamide], the melting point is 82 to 94 °C. Also, in data set [1], the inhibition of growth at 20 ppm was not below 80%. Further, the pest or weed control at 200 ppm in data set [2] was not below 80%. The pest or weed control at 200 ppm in data set [3] is not below 80%.

For the compound `O=C(NCc1ccc(-c2noc(C(F)(F)F)n2)cc1)N1CCCC1` [Compound 3.4, N-[[4-[5-(trifluoromethyl)-l,2,4-oxadiazol-3-yl]phenyl]methyl] pyrrolidine-1-carboxamide], the inhibition of growth at 20 ppm in data set [1] was not below 80%. Further, the pest or weed control at 200 ppm (in data set [2]; with Phakopsora pachyrhizi; in data set [3]) was not below 80% each time.

Turning to `O=C(NCc1ccc(-c2noc(C(F)(F)F)n2)cc1)N1CCCO1` [Compound 3.5, N-[[4-[5-(trifluoromethyl)-l,2,4-oxadiazol-3-yl]phenyl]methyl] isoxazolidine-2-carboxamide], in data set [1], the inhibition of growth at 20 ppm was not below 80%. In addition, the pest or weed control at 200 ppm (in data set [2]; with Phakopsora pachyrhizi; in data set [3]) was not below 80% in each case.
